Measurements published in patent publication US20230192772A1, “ANTIMICROBIAL PEPTIDES AND USES THEREOF” (SORBONNE UNIVERSITE, priority 2016, published 2023).
≈ marks a conversion by molar mass, not a printed value. Square brackets hold non-standard residues; d marks the D form. Ends that are not written are not given here. Peptide text beside a SMILES is read from it.

Assays:
Assay type in all cases: cell-based
[1] = tested on: Pseudomonas aeruginosa ATCC 9027; experiment: MIC/MBC (Example 10, MH medium); conditions: Table 5; P. aeruginosa ATCC 9027
Protocol: (§1) The MIC is determined using a growth inhibition test in liquid medium. The MIC is defined as being the lowest peptide concentration capable of inhibiting the bacterial strain tested, after incubation for 18 h at 37° C. The test was carried out in a sterile microtitration plate containing 96 wells. A series of increasing concentrations of each peptide (0.2 to 100 µM) was prepared beforehand in sterile MilliQ water. In each well, 10 µL of peptide was incubated with 90 µL of bacterial suspension (10^7 cfu/mL) in yeast extract-free LB medium. The microplate was incubated at 37° C. for 18 h. The bacterial growth was evaluated by measuring the OD at 620 nm using a plate reader.
(§2) The negative growth inhibition control was obtained by replacing the solution containing the peptide by sterile MilliQ water. The positive control suitable for completely inhibiting the growth of the bacterial strains was obtained by replacing the solution containing the peptide by 10 µL of formaldehyde.
(§3) The results are interpreted by calculating the percentage of bacterial growth in each well according to the formula:
(§4) %Growth = (OD well - OD of T0)/(OD of T100-OD of T0)*100 where
(§5) • OD of T100 = OD of growth control (bacterial suspension free from sample under test, 100% growth), • OD of T0 = OD of sterility control (culture medium + bacterium + 10 µL formaldehyde, 0% growth) and • OD well = OD of well for which it is sought to calculate the growth percentage (bacterial suspension + peptide under test).
(§6) The MBC is defined as being the minimum peptide concentration leaving no surviving bacteria of the inoculum after incubation at 37° C. for 24 hours. This test consists of smearing the contents of the well wherein the peptide has inhibited bacterial growth on a Petri dish (LB agar), followed by incubation for 24 h at 37° C.
(§7) A 10 mL preculture in Muller-Hinton (MH) medium is prepared by inoculating a colony of the bacterial strain of interest. The preculture is incubated at 37° C. under stirring overnight. The culture is subcultured to 1:100 under the same conditions. The culture concentration is evaluated by measuring the turbidity at 600 nm (OD600 nm 1.0 = 5 × 10^8 CFU/mL for E. coli (Gram-negative bacteria) and 1.5 × 10^8 CFU/mL for S. aureus (Gram-positive bacteria). Once the exponential growth phase (OD600 nm = 0.3 - 0.7) has been achieved, the cultures are diluted in MH medium so as to obtain 10^6 CFU/mL (final inoculum concentration).
(§8) The MIC and the MBC were determined as per the protocol described in part 2.1 of Example 2.

[2] = tested on: Enterococcus faecalis CIP 103015; experiment: MIC/MBC (Example 10, MH medium); conditions: Table 5; E. faecalis CIP 103015
Protocol: as §1, §2, §3, §4, §5, §6, §7, §8

[3] = tested on: Staphylococcus aureus ATCC 6538; experiment: MIC/MBC (Example 10, MH medium); conditions: Table 5; S. aureus ATCC 6538
Protocol: as §1, §2, §3, §4, §5, §6, §7, §8

[4] = tested on: Escherichia coli ATCC 8739; experiment: MIC/MBC (Example 10, MH medium); conditions: Table 5; E. coli ATCC 8739
Protocol: as §1, §2, §3, §4, §5, §6, §7, §8

[5] = tested on: immune cells obtained from mouse bone marrow; experiment: Cytotoxic effects on immune cells obtained from mouse bone marrow; conditions: 12.5 µM; 2 hours
Protocol: (§9) The mouse immune cells are obtained from C57BL/6 or Balb/c mouse bone marrow. The peptides are incubated at 37° C., 5% CO2 in the presence of 500,000 immune cells in RPMI medium at varied concentrations for 2 hours. Peptide-free cells are used as the negative control and cells in the presence of DMSO (30%) are used as the positive control. After incubation, the cells are washed then labelled with Trypan blue so as to measure the cell viability by microscope counting. The LC50 is then calculated as being the concentration of DA2N, K12A and DANa peptides inducing the death of 50% of the immune cells.

[6] = as above; conditions: mouse immune cells originating from bone marrow, read-out: LC50
Protocol: as §9

Compound	MBC [1] [µM]	MIC [1] [µM]	MBC [2] [µM]	MIC [2] [µM]	MBC [3] [µM]	MIC [3] [µM]	MBC [4] [µM]	MIC [4] [µM]	death of immune cells [5]	CC50 at 2 hours [6] [µM]
CSCC[C@@H](NC(=O)[C@@H](CC(N)=O)NC(=O)[C@H](NC(=O)[C@H](NC(=O)[C@@H](C)NC(=O)[C@@H](CC(N)=O)NC(=O)[C@@H](CC(C)C)NC(=O)[C@H](NC(=O)[C@@H](C)NC(=O)[C@@H](CCCCN)NC(=O)CNC(=O)[C@@H](C)NC(=O)[C@H](NC(=O)[C@@H](CCCCN)NC(=O)CNC(=O)[C@H](NC(=O)[C@@H](CCCCN)NC(=O)[C@@H](CCCCN)NC(=O)[C@@H](CC(C)C)NC(=O)[C@@H](CC(C)C)NC(=O)[C@H](NC(=O)[C@@H](CCCCN)NC(=O)[C@@H](Cc1c[nH]c2ccccc12)NC(=O)[C@@H](CC(C)C)NC(=O)[C@@H](C)N)[C@H](C)O)C(C)C)C(C)C)C(C)C)C(C)C)[C@H](C)O)C(=O)N[C@H](C)C(=O)N[C@H](CC(N)=O)C(=O)N[C@H](CCC(N)=O)C(=O)N[C@H](CC(N)=O)C(=O)O [DA2N (D), dAdLdWdKdTdLdLdKddKdVdGdKdVdAdGdKdAdVdLdNdAdVdTdNdMdAdNdQdN] (H-[dA][dL][dW][dK][dT][dL][dL][dK][dK][dV]G[dK][dV][dA]G[dK][dA][dV][dL][dN][dA][dV][dT][dN][dM][dA][dN][dQ][dN]-OH; N-terminus and C-terminus assumed)	0.8 (≈ 2.47 µg/mL)	0.8 (≈ 2.47 µg/mL)	3.1 (≈ 9.55 µg/mL)	3.1 (≈ 9.55 µg/mL)	0.8 (≈ 2.47 µg/mL)	0.8 (≈ 2.47 µg/mL)	0.8 (≈ 2.47 µg/mL)	0.4 (≈ 1.23 µg/mL)	induce the death of immune cells at a concentration of 12.5 µM with a comparable efficacy to DA2N	
CSCC[C@@H](NC(=O)[C@@H](CC(N)=O)NC(=O)[C@H](NC(=O)[C@H](NC(=O)[C@@H](C)NC(=O)[C@@H](CC(N)=O)NC(=O)[C@@H](CC(C)C)NC(=O)[C@H](NC(=O)[C@@H](C)NC(=O)[C@@H](CCCCN)NC(=O)CNC(=O)[C@@H](C)NC(=O)[C@H](NC(=O)[C@@H](CCCCN)NC(=O)CNC(=O)[C@H](NC(=O)[C@@H](CCCCN)NC(=O)[C@@H](CCCCN)NC(=O)[C@@H](CC(C)C)NC(=O)[C@@H](CC(C)C)NC(=O)[C@H](NC(=O)[C@@H](CCCCN)NC(=O)[C@@H](Cc1c[nH]c2ccccc12)NC(=O)[C@@H](CC(C)C)NC(=O)[C@@H](C)N)[C@H](C)O)C(C)C)C(C)C)C(C)C)C(C)C)[C@H](C)O)C(=O)N[C@H](C)C(=O)N[C@H](CC(N)=O)C(=O)N[C@H](CCC(N)=O)C(=O)N[C@H](CC(N)=O)C(=O)N[C@H](CCC(=O)O)C(=O)N[C@H](CCC(N)=O)C(=O)O [DA2NEQ (D), dAdLdWdKdTdLdLdKdKdVdGdKdVdAdGdKdAdVdLdNdAdVdTdNdMdAdNdQdNdEdQ] (H-[dA][dL][dW][dK][dT][dL][dL][dK][dK][dV]G[dK][dV][dA]G[dK][dA][dV][dL][dN][dA][dV][dT][dN][dM][dA][dN][dQ][dN][dE][dQ]-OH; N-terminus and C-terminus assumed)	3.1 (≈ 10.4 µg/mL)	1.6 (≈ 5.34 µg/mL)	12.5 (≈ 41.7 µg/mL)	12.5 (≈ 41.7 µg/mL)	1.6 (≈ 5.34 µg/mL)	1.6 (≈ 5.34 µg/mL)	0.8 (≈ 2.67 µg/mL)	0.8 (≈ 2.67 µg/mL)		
ALWDTLLKKVGKVAGKAVLNAVTNMANQN [K4D]	25	25	50	50	12.5	12.5	12.5	12.5		
ALWKTLAKKVGKVAGKAVLNAVTNMANQN [L7A]	1.6	1.6	6.3	6.3	3.1	3.1	0.8	0.8		
ALWKTLLKKVGAVAGKAVLNAVTNMANQN [K12A]	6.3	6.3	12.5	12.5	6.3	3.1	1.6	1.6		6.5
ALWKTLLKKVGKAAGKAVLNAVTNMANQN [V13A]	6.3	6.3	50	50	12.5	6.3	1.6	1.6		
ALWKTLLKKVGKVAGKAVLNAVTNAANQN [M25A]	3.1	3.1	12.5	12.5	3.1	3.1	0.8	0.8		
ALWKTLLKKVGKVAGKAVLNAVTNMANQN-NH2 [DA2Na]	1.6	1.6	3.1	3.1	1.6	0.8	0.8	0.8		3.75
ALWKTLLKKVGKVAGKAVLNAVTNMANQNE-OH [DA2NE]	3.1	3.1	50	12.5	12.5	3.1	1.6	0.8	induce the death of immune cells at a concentration of 12.5 µM with a comparable efficacy to DA2N	
ALWKTLLKKVGKVDGKAVLNAVTNMANQN [A14D]	>50	50	>50	>50	>50	>50	6.3	6.3		
ALWKTLLKKVGKVKGKAVLNAVTNMANQN [A14K]	12.5	12.5	>50	>50	50	25	1.6	1.6		
ALWKTLLKKVGPVAGKAVLNAVTNMANQN [K12P]	12.5	12.5	>50	>50	6.3	6.3	6.3	6.3		
Gramicidin [reference compound]	>100	>100	0.8	0.8	>50	>50	>100	>100		
